SMILES strings stand for the structures.

This passage reports IC50 results from patent US9139581B2 (PORTOLA PHARMACEUTICALS, INC., priority 2008, dated 2015).

For the first experiment, the target named is T1, full length active recombinant SYK enzyme (Homo sapiens, UniProt P43405).
T1 construct: full length active recombinant SYK enzyme (Millipore, Calif.); purchased Millipore
Briefly: Inhibition of Syk tyrosine phosphorylation activity (LANCE TR-FRET). The class given is biochemical. Conditions: Table 3; 1 nM SYK, 100 μM ATP; read-out: Syk IC50 code. On the procedure:
The in vitro and in vivo human syk activities of the inventive compounds can be determined by various procedures known in the art, such as a test for their ability to inhibit the activity of human plasma syk. […] Inhibition of Syk Tyrosine Phosphorylation Activity Potency of candidate molecules for inhibiting syk tyrosine phosphorylation activity is assessed by measuring the ability of a test compound to inhibit syk-mediated tyrosine phosphorylation of a syk-specific substrate. SYK tyrosine phosphorylation activity is measured using the LANCETM Technology developed by Perkin Elmer Life and Analytical Sciences (Boston, Mass.). LANCETM refers to homogeneous time resolved fluorometry applications using techniques such as time-resolved fluorescence resonance energy transfer assay (TR-FRET) (see generally for procedures in Perkin Elmer Application Note-How to Optimize a Tyrosine Kinase Assay Using Time Resolved Fluorescence-Based LANCE Detection, wwww.perkinelmer.com/lifesciences). The assay principle involves detection of a phosphorylated substrate using energy transfer from a phosphospecific europium-labeled antibody to streptavidin-allophycocyanin as an acceptor. To test the ability of candidate molecules to inhibit SYK tyrosine phosphorylation activity, molecules are reconstituted in 30% DMSO and serially diluted 1:3 with the final dilution containing DMSO in the absence of the candidate molecule. The final DMSO concentration in the assay is 3%. Kinase assays are performed as a two part reaction. The first reaction is a kinase reaction and which comprises of a candidate molecule, full length active recombinant SYK enzyme (Millipore, Calif.) and biotin-labeled SYK-specific substrate biotin-[…]-OH. The second reaction involves termination of the kinase reaction and the simultaneous addition of the detection reagents-europium-labeled anti-phosphotyrosine reagent (Eu-W1024-PY100, Perkin Elmer, Boston, Mass.) and Streptavidin-Allophycocyanin detection reagent (SA-APC, Prozyme, Calif.). The kinase reaction is performed in a black U-bottom 96-well microtitre plate. […] The reaction is allowed to proceed for 1 hour at room temperature. […] The detection reagents are added to the reaction mixture at the following dilutions-1:500 for Eu-W1024-PY100 and 1:250 for SA-APC. The kinase reaction is terminated by the addition of 50 μL quench buffer containing the detection reagents. The detection is allowed to proceed for 1 hr at room temperature. Detection of the phosphorlated substrate in the absence and presence of inhibitors is measured in the TR-FRET instrument, Analyst HT ([…], Sunnyvale, Calif.) and the condition for measurements are set up using CriterionHost Release 2.0 ([…], Sunnyvale, Calif.). […] IC50s were derived by non-linear regression analysis.
For orientation: TR-FRET usually uses a lanthanide donor and a delayed reading to cut background.
As usually defined, the IC50 is the concentration that gives 50% inhibition. With `NC(=O)CC1CCN(c2nc(Nc3ccc4c(c3)CCC(=O)N4)nc3[nH]ccc23)CC1` [Example 121, 2-(1-(2-(2-oxo-1,2,3,4-tetrahydroquinolin-6-ylamino)-7H-pyrrolo[2,3-d]pyrimidin-4-yl)piperidin-4-yl)acetamide], the half-maximal inhibitory concentration (IC50) lay in the range of 100 to 1000 nM.

`CC(=O)N1CCN(c2ccc(Nc3ncc(F)c(N4CCC(CO)CC4)n3)cc2)CC1` [Example 38, 1-(4-(4-(5-fluoro-4-(4-(hydroxymethyl)piperidin-1-yl)pyrimidin-2-ylamino)phenyl)piperazin-1-yl)ethanone]: the IC50 was > 1000 nM.

In the case of `N[C@H]1CC[C@@H](Nc2nc(Nc3ccc4c(c3)CCC(=O)N4)ncc2-c2ccncc2)CC1` [Example 143, 6-(4-((1s,4s)-4-aminocyclohexylamino)-5-(pyridin-4-yl)pyrimidin-2-ylamino)-3,4-dihydroquinolin-2(1H)-one], the IC50 was > 1000 nM.

In the case of `CC(=O)N(C)c1ccc(Nc2nc(NC3CCCCC3N)c3cc[nH]c3n2)cc1` (stereo not drawn) [Example 63, N-(4-(4-(2-aminocyclohexylamino)-7H-pyrrolo[2,3-d-]pyrimidin-2-ylamino)phenyl)-N-methylacetamide], the IC50 is > 1000 nM.

In the case of `CN(CC(=O)O)S(=O)(=O)c1ccc(Nc2nc(NC3CCC3)c3cc[nH]c3n2)cc1` [Example 55, 2-(4-(4-(cyclobutylamino)-7H-pyrrolo[2,3-d]pyrimidin-2-ylamino)-N-methylphenylsulfonamido)acetic acid], the half-inhibitory concentration (IC50) was 10 to 100 nM.

On to `C[C@@H](CO)Nc1nc(Nc2ccc(N3CCNCC3)cc2)nc2[nH]ccc12` [Example 99B, (S)-2-(2-(4-(piperazin-1-yl)phenylamino)-7H-pyrrolo[2,3-d]pyrimidin-4-ylamino)propan-1-ol], for which the half-maximal inhibitory concentration (IC50) lay within 100 to 1000 nM.

In the case of `NC(=O)c1c[nH]c2nc(Nc3ccc4c(c3)CCC(=O)N4)nc(NC3CC3)c12` [Example 108, 4-(cyclopropylamino)-2-(2-oxo-1,2,3,4-tetrahydroquinolin-6-ylamino)-7H-pyrrolo[2,3-d]pyrimidine-5-carboxamide], the IC50 was > 1000 nM.

Take `CN(C(=O)CCO)c1ccc(Nc2nc(NC3CC3)c3cc[nH]c3n2)cc1` [Example 87, N-(4-(4-(cyclopropylamino)-7H-pyrrolo[2,3-d]pyrimidin-2-ylamino)phenyl)-3-hydroxy-N-methypropanamide]: the IC50 lay in the range of 10 to 100 nM.

On to `NCCOCCNc1nc(Nc2ccc(N3CCC[C@H]3C(N)=O)cc2)nc2[nH]ccc12` [Example 94, (S)-1-(4-(4-(2-(2-aminoethoxy)ethylamino)-7H-pyrrolo[2,3-d]pyrimidin-2-ylamino)phenyl)pyrrolidine-2-carboxamide], for which the IC50 lay within 100 to 1000 nM.

Turning to `CN(C(=O)CCO)c1ccc(Nc2nc(NC3CCC3)c3cc[nH]c3n2)cc1` [Example 86, N-(4-(4-(cyclobutylamino)-7H-pyrrolo[2,3-d]pyrimidin-2-ylamino)phenyl)-3-hydroxy-N-methypropanamide], the IC50 lay within 10 to 100 nM.

For the compound `CC(=O)N1CCN(c2ccc(Nc3nc(N[C@H](C)CO)c4cc[nH]c4n3)cc2)CC1` [Example 98A, (R)-1-(4-(4-(4-(1-hydroxypropan-2-ylamino)-7H-pyrrolo[2,3-d]pyrimidin-2-ylamino)phenyl)piperazin-1-yl)ethanone], the 50% inhibitory concentration (IC50) lay in the range of 100 to 1000 nM.

For `O=C1CNc2nc(Nc3ccc4cn[nH]c4c3)nc(NC3CCC3)c21` [Example 51, 2-(1H-indazol-6-ylamino)-4-(cyclobutylamino)-6,7-dihydropyrrolo[2,3-d]pyrimidin-5-one], the 50% inhibitory concentration (IC50) fell in the range of 100 to 1000 nM.

In the case of `CN1C(=O)CCc2cc(Nc3nc(NCc4ccccc4)c4c(C#N)c[nH]c4n3)ccc21` [Example 115, 4-(Benzylamino)-2-(1-methyl-2-oxo-1,2,3,4-tetrahydroquinolin-6-ylamino)-7H-pyrrolo[2,3-d]pyrimidine-5-carbonitrile], the IC50 was 100 to 1000 nM.

`CC(=O)N1CCN(c2ccc(Nc3ncc(F)c(N4CCC(N)CC4)n3)cc2)CC1` [Example 128, 1-(4-(4-(4-(4-aminopiperidin-1-yl)-5-fluoropyrimidin-2-ylamino)phenyl)piperazin-1-yl)ethanone]: the concentration for half-maximal inhibition (IC50) is > 1000 nM.

Take `O=C(O)CC1CCN(c2nc(Nc3ccc4c(c3)CCC(=O)N4)nc3[nH]ccc23)CC1` [Example 120, 2-(1-(2-(2-oxo-1,2,3,4-tetrahydroquinolin-6-ylamino)-7H-pyrrolo[2,3-d]pyrimidin-4-yl)piperidin-4-yl)acetic acid]: the half-inhibitory concentration (IC50) is > 1000 nM.

With `CCOC(=O)CN1C(=O)CCc2cc(Nc3nc(NC4CCC4)c4cc[nH]c4n3)ccc21` [Example 69, Ethyl 2-(6-(4-(cyclobutyamino)-7H-pyrrolo-[2,3-d]pyrimidine-2-ylamino)-2-oxo-3,4-dihydroquinolin-1(2H)-yl)acetate], the concentration for half-maximal inhibition (IC50) lay within 10 to 100 nM.

Turning to `CC(=O)N1CCN(c2ccc(Nc3ncc(F)c(N4CCC(NC(N)=O)CC4)n3)cc2)CC1` [Example 129, 1-(1-(2-(4-(4-acetylpiperazin-1-yl)phenylamino)-5-fluoropyrimidin-4-yl)piperidin-4-yl)urea], the IC50 was > 1000 nM.

Turning to `CC(=O)N1CCN(c2ccc(Nc3ncc(F)c(N4CCC(NC(=O)OCc5ccccc5)CC4)n3)cc2)CC1` [Example 127, Benzyl 1-(2-(4-(4-acetylpiperazin-1-yl)phenylamino)-5-fluoropyrimidin-4-yl)piperidin-4-ylcarbamate], the IC50 was > 1000 nM.

In the case of `CN(C(=O)C1CC1)c1ccc(Nc2nc(NC3CC3)c3cc[nH]c3n2)cc1` [Example 81, N-(4-(4-(cyclopropylamino)-7H-pyrrolo[2,3-d]pyrimidin-2-ylamino)phenyl)-N-methylcyclopropanecarboxamide], the concentration for half-maximal inhibition (IC50) lay within 100 to 1000 nM.

In the case of `COCCNc1nc(Nc2ccc(N3CCN(C(C)=O)CC3)cc2)nc2[nH]ccc12` [Example 90, 1-(4-(4-(4-(2-methoxyethylamino)-7H-pyrrolo[2,3-d]pyrimidin-2-ylamino)phenyl)piperazin-1-yl)ethanone], the concentration for half-maximal inhibition (IC50) was 100 to 1000 nM.

Consider `CS(=O)(=O)Cc1ccc(Nc2nc(NC3CCC3)c3cc[nH]c3n2)cc1` [Example 76], for which the IC50 is 100 to 1000 nM.

`N#CCC(=O)N1CCC(Nc2nc(Nc3ccc(C(N)=O)cc3)nc3[nH]ccc23)CC1` [Example 109, 4-(4-(1-(2-cyanoacetyl)piperidin-4-ylamino)-7H-pyrrolo[2,3-d]pyrimidin-2-ylamino)benzamide]: the IC50 is > 1000 nM.

Turning to `NCCOCCNc1nc(Nc2ccc3cn[nH]c3c2)nc2[nH]ccc12` [Example 92, N^4-(2-2-(aminoethoxy)ethyl)-N^2-(1H-indazol-6-ylamino)-7H-pyrrolo[2,3-d]pyrimidine-2,4-diamine], the concentration for half-maximal inhibition (IC50) was in the range of 10 to 100 nM.

Regarding `CC(=O)N1CCN(c2ccc(Nc3nc(Nc4cccc(S(N)(=O)=O)c4)c4cc[nH]c4n3)cc2)CC1` [Example 96A, 3-(2-(4-(4-acetylpiperazin-1-yl)phenylamino)-7H-pyrrolo[2,3-d]pyrimidin-4-ylamino)benzenesulfonamide], the IC50 was in the range of 100 to 1000 nM.

Regarding `N#Cc1c[nH]c2nc(Nc3ccc4cn[nH]c4c3)nc(NC3CC3)c12` [Example 40, 2-(1H-indazol-6-ylamino)-4-(cyclopropylamino)-7H-pyrrolo[2,3-d]pyrimidine-5-carbonitrile], the IC50 lay in the range of 10 to 100 nM.

The same experiment, now with this note: Table 4; 1 nM SYK, 100 μM ATP; read-out: syk IC50.
For the compound `CC(=O)N1CCN(c2ccc(Nc3ncc(F)c(N4CCCC(C(N)=O)C4)n3)cc2)CC1` (centres unmarked) [Example 27, 1-(2-(4-(4-acetylpiperazin-1-yl)phenylamino)-5-fluoropyrimidin-4-yl)piperidine-3-carboxamide], the IC50 is > 1000 nM.

For the compound `CC(=O)N1CCN(c2ccc(Nc3ncc(C(N)=O)c(N4CCCC(CO)C4)n3)cc2)CC1` (centres unmarked) [2-(4-(4-acetylpiperazin-1-yl)phenylamino)-4-(3-(hydroxymethyl)piperidin-1-yl)pyrimidine-5-carboxamide], the IC50 lay in the range of 100 to 1000 nM.

As for `c1cc2c(N3CCCC3)nc(Nc3ccc(N4CCNCC4)cc3)nc2[nH]1` [Example 21, N-(4-(piperazin-1-yl)phenyl)-4-(pyrrolidin-1-yl)-7H-pyrrolo[2,3-d]pyrimidin-2-amine], the IC50 fell in the range of 100 to 1000 nM.

Consider `CC(=O)N1CCN(c2ccc(Nc3ncc(C(N)=O)c(N4CCC(CN)CC4)n3)cc2)CC1` [Example 25, 2-(4-(4-acetylpiperazin-1-yl)phenylamino)-4-(4-(aminomethyl)piperidin-1-yl)pyrimidine-5-carboxamide], for which the IC50 was > 1000 nM.
